Measurements published in ChEMBL document CHEMBL1201862, “PubChem BioAssay data set” (2004).
Activity calls are given as the source filed them.

How the values were obtained:
[1] = inhibitors of firefly luciferase expression or activity, dose response, H4 neuroglioma cells, luminescence (AID 1990); type: functional, cell-based
[2] = Luminescence-based dose response cell-based high throughput screening assay for cytotoxic compounds using the IEC-6 intestinal epithelial cell line. [Related pubchem assays: 1858 (Summary AID.), 1825 (Counterscreen.), 1907 (Confirmation screen.)]; type: functional
[3] = inhibitors of SNCA 5'UTR-driven reporter translation, confirmation, H4 neuroglioma cells, luminescence (AID 1988); type: functional, cell-based
cells = type: functional, cell-based
[4] = luciferase reporter signal reduction – luminescence, H4-C neuroglioblastoma cells, dose response (AID 2458); type: functional, cell-based;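 note: H4 neuroglioblastoma cells stably carrying a luciferase reporter gene fusion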
[5] = inhibitors of SNCA 5'UTR-driven translation, confirmation, luminescence, H4 neuroglioblastoma cells, dose confirmation (AID 2454); type: functional, cell-based;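 note: H4 neuroglioblastoma cells carrying an alpha-synuclein 5'UTR luciferase reporter; potency for inhibition of the luciferase signal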
[6] = cytotoxicity in HEK-293T cells, dose response, cytotoxicity control for TCR NF-kB inhibitor project, luminescence, T-cell screen hits (AID 489026); type: functional, cell-based;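 note: cells exposed to compound about 14 hours before the viability readout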
Estrogen receptor = target: T1, Estrogen receptor (Homo sapiens, UniProt P03372); assay: potentiators of ERα–SRC-1 coactivator binding, dose response, biochemical, TR-FRET, ERα LBD (AID 737)
T1 sequence (P03372 whole entry): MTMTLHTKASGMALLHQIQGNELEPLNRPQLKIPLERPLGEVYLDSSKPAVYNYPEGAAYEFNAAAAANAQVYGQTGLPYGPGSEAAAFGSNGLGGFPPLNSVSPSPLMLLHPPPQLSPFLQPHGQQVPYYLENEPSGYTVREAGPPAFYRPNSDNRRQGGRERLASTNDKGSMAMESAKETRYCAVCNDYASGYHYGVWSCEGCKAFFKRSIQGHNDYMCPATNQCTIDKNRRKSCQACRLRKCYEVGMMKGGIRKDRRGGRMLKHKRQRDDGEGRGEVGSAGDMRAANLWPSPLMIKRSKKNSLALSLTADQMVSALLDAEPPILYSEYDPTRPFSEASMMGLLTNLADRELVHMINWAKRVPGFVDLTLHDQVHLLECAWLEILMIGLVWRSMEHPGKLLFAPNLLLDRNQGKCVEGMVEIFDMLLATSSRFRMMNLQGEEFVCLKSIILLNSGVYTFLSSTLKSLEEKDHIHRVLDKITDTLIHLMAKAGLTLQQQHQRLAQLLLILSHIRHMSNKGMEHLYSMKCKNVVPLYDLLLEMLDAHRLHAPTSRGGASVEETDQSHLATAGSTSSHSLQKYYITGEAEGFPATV

Streptococcus = assay: Luminescence Microorganism-Based Dose Response Follow up to Identify Compounds Cytotoxic to Streptococcus. [Related pubchem assays: 1677 (Project Summary), 1915, 1914, 1902 (Retest at Dose), 1900 (Counter Screen), 1662 (Primary HTS)]; type: functional, organism-based
[7] = target: Transitional endoplasmic reticulum ATPase (Homo sapiens, UniProt P55072, C522A); assay: C522A mutant p97 ATPase inhibitors, dose response, counter-screen for p97 inhibitor project, biochemical, luminescence (AID 1544)
[8] = target: Transitional endoplasmic reticulum ATPase (Homo sapiens, UniProt P55072); assay: p97 ATPase inhibitors, dose response, biochemical (AID 1534)
[9] = target: T2, RNA-binding protein pos-1 (Caenorhabditis elegans, UniProt G5EF15); assay: inhibitors of POS-1/mex-3 RNA binding, dose response, biochemical, fluorescence polarization (AID 1964);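 note: purified POS-1 fused to maltose binding protein made in E. coli; potency of compounds blocking POS-1 binding to fluorescent RNA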
T2 sequence (G5EF15 whole entry): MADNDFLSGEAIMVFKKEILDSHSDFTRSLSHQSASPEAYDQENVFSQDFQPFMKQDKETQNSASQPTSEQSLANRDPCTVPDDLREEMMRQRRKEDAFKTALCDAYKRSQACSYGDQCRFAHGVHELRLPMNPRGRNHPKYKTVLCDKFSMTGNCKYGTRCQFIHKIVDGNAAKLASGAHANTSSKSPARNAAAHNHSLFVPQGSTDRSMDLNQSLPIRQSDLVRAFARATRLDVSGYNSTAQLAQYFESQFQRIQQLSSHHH

[10] = target: FAD-linked sulfhydryl oxidase ALR (Homo sapiens, UniProt P55789); assay: inhibitors of human ALR sulfhydryl oxidase, dose response, biochemical, H2O2 detection, luminescence, cherry-pick (AID 493248)
Aspartyl aminopeptidase = target: T3, Aspartyl aminopeptidase (Plasmodium falciparum 3D7, UniProt Q8I2J3)
T3 sequence (Q8I2J3 whole entry): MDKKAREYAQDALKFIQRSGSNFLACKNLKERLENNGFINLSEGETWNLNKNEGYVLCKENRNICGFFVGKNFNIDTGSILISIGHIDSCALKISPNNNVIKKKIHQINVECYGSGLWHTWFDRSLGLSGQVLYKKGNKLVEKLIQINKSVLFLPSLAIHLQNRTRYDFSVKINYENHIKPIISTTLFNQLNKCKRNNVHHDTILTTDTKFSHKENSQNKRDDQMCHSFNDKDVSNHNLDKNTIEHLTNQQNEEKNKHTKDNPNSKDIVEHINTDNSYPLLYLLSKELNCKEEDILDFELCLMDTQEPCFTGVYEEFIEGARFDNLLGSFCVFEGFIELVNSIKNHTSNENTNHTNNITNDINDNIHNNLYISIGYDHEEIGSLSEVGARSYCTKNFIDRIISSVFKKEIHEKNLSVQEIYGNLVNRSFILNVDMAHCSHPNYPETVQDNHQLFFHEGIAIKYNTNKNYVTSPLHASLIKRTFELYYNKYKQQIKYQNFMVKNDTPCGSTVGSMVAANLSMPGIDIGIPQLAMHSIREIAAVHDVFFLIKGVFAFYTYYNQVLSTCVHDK

[11] = cytotoxicity in KRAS-transformed pancreatic duct cells, primary screen, cell-based, fluorescence, HTS (AID 431); type: functional; conditions: Homo sapiens;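 note: cell line used: HPDE-C7K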
[12] = THP-1 cell cytotoxicity, dose response, cytotoxicity control for Vif-APOBEC3G degradation inhibitor project, THP-1 cells (AID 1117359); type: functional; conditions: Human immunodeficiency virus 1, THP-1
Large T antigen = Large T antigen (Simian virus 40, UniProt P03070); type: functional, Betapolyomavirus macacae;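 note: Confirmatory-stage PubChem screen for compounds that inhibit SV40 T antigen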
[13] = target: T4, Zinc finger protein mex-5 (Caenorhabditis elegans, UniProt Q9XUB2); assay: MEX-5/TCR-2 RNA interaction inhibitors, dose response, biochemical, C. elegans, fluorescence polarization (AID 1960)
T4 sequence (Q9XUB2 whole entry): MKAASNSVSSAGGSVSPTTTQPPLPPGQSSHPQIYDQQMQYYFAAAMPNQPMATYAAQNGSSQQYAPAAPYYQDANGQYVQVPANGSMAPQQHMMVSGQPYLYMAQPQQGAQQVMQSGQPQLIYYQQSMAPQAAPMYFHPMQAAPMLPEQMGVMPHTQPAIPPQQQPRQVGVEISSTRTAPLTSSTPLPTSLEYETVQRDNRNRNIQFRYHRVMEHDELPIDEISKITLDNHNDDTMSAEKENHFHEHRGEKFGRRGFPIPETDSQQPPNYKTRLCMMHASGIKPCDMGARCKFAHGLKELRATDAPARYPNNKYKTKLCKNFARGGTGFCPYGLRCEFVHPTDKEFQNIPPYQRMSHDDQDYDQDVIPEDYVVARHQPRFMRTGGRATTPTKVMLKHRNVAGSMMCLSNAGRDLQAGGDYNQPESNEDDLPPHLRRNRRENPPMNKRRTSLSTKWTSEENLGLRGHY

[14] = cytotoxicity in HPDE-C7 cells, cell-based, fluorescence, HTS (AID 430); type: functional; conditions: Homo sapiens
Procathepsin L = Procathepsin L (Homo sapiens, UniProt P07711)
Procathepsin L, sequence (P07711 whole entry): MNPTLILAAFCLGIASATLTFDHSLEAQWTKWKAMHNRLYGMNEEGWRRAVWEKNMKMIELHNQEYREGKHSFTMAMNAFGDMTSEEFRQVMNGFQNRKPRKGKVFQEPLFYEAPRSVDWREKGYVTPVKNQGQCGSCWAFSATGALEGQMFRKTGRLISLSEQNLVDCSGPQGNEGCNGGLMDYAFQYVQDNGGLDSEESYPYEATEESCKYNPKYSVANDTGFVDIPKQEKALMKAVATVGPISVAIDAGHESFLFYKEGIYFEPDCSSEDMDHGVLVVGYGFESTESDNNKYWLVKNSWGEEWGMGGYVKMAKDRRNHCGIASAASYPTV

Transitional endoplasmic reticulum ATPase (Homo sapiens, UniProt P55072, C522A), sequence (P55072 2-806 C522A limits assumed): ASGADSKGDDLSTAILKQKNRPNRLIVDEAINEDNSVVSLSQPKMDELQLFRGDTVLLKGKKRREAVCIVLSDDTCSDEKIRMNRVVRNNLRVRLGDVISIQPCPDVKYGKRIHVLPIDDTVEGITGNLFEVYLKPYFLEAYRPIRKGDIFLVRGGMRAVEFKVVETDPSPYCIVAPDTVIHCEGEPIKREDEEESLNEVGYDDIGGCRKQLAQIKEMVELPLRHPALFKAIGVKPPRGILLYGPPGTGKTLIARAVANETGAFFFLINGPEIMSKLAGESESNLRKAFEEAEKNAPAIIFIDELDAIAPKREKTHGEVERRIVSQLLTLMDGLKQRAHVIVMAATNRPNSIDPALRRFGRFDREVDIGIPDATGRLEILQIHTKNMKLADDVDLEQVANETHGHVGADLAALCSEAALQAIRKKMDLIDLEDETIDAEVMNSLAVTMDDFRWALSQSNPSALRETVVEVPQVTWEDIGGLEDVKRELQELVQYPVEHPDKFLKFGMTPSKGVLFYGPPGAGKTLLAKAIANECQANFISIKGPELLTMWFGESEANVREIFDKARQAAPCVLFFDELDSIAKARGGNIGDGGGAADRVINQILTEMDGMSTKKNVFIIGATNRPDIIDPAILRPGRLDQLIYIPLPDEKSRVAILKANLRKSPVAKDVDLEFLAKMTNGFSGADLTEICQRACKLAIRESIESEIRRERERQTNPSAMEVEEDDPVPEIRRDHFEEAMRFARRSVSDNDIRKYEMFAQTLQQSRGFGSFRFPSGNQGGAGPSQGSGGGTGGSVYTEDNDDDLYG
Transitional endoplasmic reticulum ATPase (Homo sapiens, UniProt P55072), sequence (P55072 whole entry, the tested form may be a part): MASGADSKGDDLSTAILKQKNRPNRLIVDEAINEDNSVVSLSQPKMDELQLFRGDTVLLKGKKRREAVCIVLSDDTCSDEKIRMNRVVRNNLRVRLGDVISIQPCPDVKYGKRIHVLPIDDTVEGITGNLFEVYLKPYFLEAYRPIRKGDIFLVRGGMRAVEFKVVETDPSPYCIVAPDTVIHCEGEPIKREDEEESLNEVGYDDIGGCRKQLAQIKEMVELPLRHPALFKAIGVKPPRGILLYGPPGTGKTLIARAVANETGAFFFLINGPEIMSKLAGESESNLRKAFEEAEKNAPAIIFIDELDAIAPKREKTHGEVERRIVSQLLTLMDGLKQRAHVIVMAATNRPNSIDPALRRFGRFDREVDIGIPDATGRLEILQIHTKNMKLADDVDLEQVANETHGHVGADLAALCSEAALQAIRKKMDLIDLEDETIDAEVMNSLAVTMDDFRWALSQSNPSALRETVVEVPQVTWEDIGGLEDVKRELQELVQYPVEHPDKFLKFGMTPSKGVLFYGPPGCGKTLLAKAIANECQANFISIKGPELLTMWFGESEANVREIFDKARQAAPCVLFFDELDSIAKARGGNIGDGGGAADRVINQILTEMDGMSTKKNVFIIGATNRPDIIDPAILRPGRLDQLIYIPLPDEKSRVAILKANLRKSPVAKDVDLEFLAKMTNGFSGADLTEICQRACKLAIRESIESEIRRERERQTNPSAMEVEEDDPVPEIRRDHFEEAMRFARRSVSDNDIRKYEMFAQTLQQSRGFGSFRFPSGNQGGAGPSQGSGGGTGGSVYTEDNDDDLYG
FAD-linked sulfhydryl oxidase ALR, sequence (P55789 whole entry): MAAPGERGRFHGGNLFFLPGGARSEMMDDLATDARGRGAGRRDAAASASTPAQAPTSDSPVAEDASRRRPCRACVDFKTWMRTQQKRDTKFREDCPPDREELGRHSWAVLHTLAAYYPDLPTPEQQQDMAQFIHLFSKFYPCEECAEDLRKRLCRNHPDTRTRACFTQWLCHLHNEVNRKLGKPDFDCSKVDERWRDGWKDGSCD
Large T antigen, sequence (P03070 whole entry): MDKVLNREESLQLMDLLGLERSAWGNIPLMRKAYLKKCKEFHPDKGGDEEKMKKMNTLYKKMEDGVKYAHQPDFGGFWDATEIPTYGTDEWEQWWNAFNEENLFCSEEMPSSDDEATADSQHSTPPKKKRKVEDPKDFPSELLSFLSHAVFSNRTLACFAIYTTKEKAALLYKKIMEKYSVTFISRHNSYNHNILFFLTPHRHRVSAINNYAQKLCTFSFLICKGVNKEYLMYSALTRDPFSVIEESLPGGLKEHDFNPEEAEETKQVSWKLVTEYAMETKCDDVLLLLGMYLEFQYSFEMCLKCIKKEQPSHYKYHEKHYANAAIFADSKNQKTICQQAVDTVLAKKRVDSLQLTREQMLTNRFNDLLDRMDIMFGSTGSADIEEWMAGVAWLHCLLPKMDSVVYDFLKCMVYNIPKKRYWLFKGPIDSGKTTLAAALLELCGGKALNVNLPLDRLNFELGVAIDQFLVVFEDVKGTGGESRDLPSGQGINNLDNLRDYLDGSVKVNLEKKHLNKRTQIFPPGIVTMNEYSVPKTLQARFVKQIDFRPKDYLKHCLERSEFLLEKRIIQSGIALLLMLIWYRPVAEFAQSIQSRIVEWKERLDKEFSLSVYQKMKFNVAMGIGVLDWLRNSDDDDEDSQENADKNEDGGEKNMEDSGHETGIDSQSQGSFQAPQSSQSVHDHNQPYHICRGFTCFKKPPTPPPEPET

## Cc1ccc(Nc2nc(-c3c(C)nc4ccccn34)cs2)cc1
[1]
  EC50: < 0.1 µM (active)
[2]
  IC50: 0.0895 µM (active)
[3]
  EC50: < 0.1 µM (active)
cells
  EC50: 0.027 µM (active)
[4]
  EC50: 0.021 µM (active)
[5]
  EC50: 0.013 µM (active)
[6]
  IC50: > 80 µM (inactive)

## Cc1ccc(F)cc1NC(=O)c1cccc2nccnc12
Estrogen receptor
  EC50: 13 µM (not active)

## O=C(c1ccc(F)cc1)n1c2ccccc2c2ccccc21
Streptococcus
  EC50: > 500 µM (not active)

## COc1ccc(/C=N/Nc2nnc(-c3ccccc3)c(O)n2)cc1
[7]
  IC50: > 50 µM (not active)
[8]
  IC50: > 50 µM (not active)

## Oc1ccc(/C=C/c2cc(O)cc(O)c2)cc1 [RESVERATROL]
[9]
  EC50: > 300 µM (not active)
[10]
  AC50: 4.02 µM (active)
Aspartyl aminopeptidase
  IC50: 2.24 µM (active)
[11]
  EC50: > 20 µM (not active)
[12]
  CC50: 26.3 µM (active)
Large T antigen
  IC50: 26.2 µM (active)
[13]
  EC50: 163 µM (active)
[14]
  EC50: 6.97 µM (active)
Procathepsin L
  IC50: > 59.6 µM (not active)
